Where a SMILES comes first, the peptide text is derived from it.
Columns and labels:
[1] = system: RTT iPSC-derived neurons; experiment: In vitro human model of Rett Syndrome, iPSC-derived neurons (Example 14); type: cell-based; settings: 1 nM-10 μM for 1 week
Protocol: RTT fibroblasts (carrying 4 distinct MeCP2 mutations) and control fibroblasts are generated from explants of dermal biopsies. The shRNA against target MeCP2 gene is cloned into the LentiLox3.7 lentivirus vector (as described in Marchetto et al.). The fibroblasts are infected with retroviral reprogramming vectors (Sox2, Oct4, c-Myc and Klf4). Two days after infection, fibroblasts are plated on mitotically inactivated mouse embryonic fibroblasts with hESC medium. After 2 weeks, iPSC colonies that emerge from the background of fibroblasts are manually picked and transferred to feeder-free conditions on matrigel-coated dishes (BD) using embryonic stem cell culture media mTeSR™ (Stem Cell Technologies) and passaged manually. Gene expression profiles of the generated clones are measured using human genome Affymetrix Gene Chip™ arrays to confirm that reprogramming is successful. […]
Cells are fixed in 4% paraformaldehyde and permeabilized with 0.5% Triton-X100 in PBS. […] Fluorescent signals are detected using a Zeiss inverted microscope and images are processed with Photoshop CS3. The following primary antibodies are used: TRA-1-60, TRA-1-81 (1:100), Nanog and Lin28 (1:500), human Nestin (1:100), Tuj-1 (1:500), Map2 (1:100); meCP2 (1:1000; VGLUT1 (1:200), Psd95 (1:500), GFP (1:200), Sox1 (1:250), Mushasil (1:200) and me3H3K27 (1:500). Cell soma size is measured using suitable software (e.g. ImageJ) after identification of neurons using the Syn::EGFP™. The morphologies of neuronal dendrites and spines are studied from an individual projection of z-stacks optical sections and scanned at 0.5 um increments that correlate with the resolution valued at z-plane. Each optical section is the result of 3 scans at 500 lps followed by Kalman filtering. For synapse quantification, images are taken by a z-step of 1 um using Biorad radiance 2100™ confocal microscope. Synapse quantification is done blinded to genotype. Only VGLUT1 puncta along Map2-positive processes are counted. […]

[2] = system: fmr1 knockout mice; experiment: Open field test, fmr1 knockout mice; type: in vivo, mouse; settings: 100 mg/kg i.p. 28 days
Protocol: 1. fmr1 KO+Vehicle (saline) 2. Wt+Vehicle (saline) 3. fmr1 KO+G-2-MePE (100 mg/kg in saline) 4. Wt+G-2-MePE (100 mg/kg in saline).
G-2-MePE was administered at the dose of 100 mg/kg i.p. in 0.1 ml saline, once daily for 28 days. Vehicle-treated animals were injected with 0.1 ml saline daily for 28 days. Thereafter, drug or vehicle treatments were stopped and animals were tested on successive days until all tests were completed. Finally, the animals were sacrificed for determining expression of pAkt and pERK
The open field is a grey PVC enclosed arena 50×30 cm divided into 10 cm squares. Mice were brought to the experimental room 5-20 min before testing. A mouse was placed into a corner square facing the corner and observed for 3 min. The number of squares entered (whole body) and rears (both front paws off the ground, but not as part of grooming) were counted. The latency to the first rearing (rear) was also noted. The movement of the mouse around the field was recorded with a video tracking device for 300 s (vNT4.0, Viewpoint). The latency for the mouse to enter the brightest, central part of the field total time spent in this central region, and total activity (in terms of path length in centimeters), were recorded in each trial, the initial exposure, 10 min after the initial exposure and 24 h after the initial exposure.
During exposure to the open field chamber mice habituated to the environment and thus explored less, decreasing the amount movement shown over time. Movement and rearing were recorded during the 3 exposures. Failures to reduce locomotion or rearing at 10 minutes and 24 hours indicated deficits in short and long term memory, respectively.

**Q.** Which “frequency and amplitude of spontaneous post-synaptic currents, frequency of calcium transients” value [1] does the source give for `C[C@@]1(C(=O)N[C@@H](CCC(=O)O)C(=O)O)CCCN1C(=O)CN` [Example G-2-MePE, Glycyl-L-2-methylprolyl-L-glutamic acid] (HELM PEPTIDE1{G.[C[C@@]1(C(=O)[*:2])CCCN1[*:1]].E}$$$$V2.0) here?
**A.** Its value is “normalizes”.

**Q.** What about the glutamatergic synapse numbers [1] of the same compound?
**A.** The glutamatergic synapse numbers was “significant increase”.

**Q.** And the VGLUT1 puncta number ([1]; all concentrations)?
**A.** The VGLUT1 puncta number was “increase VGLUT1 puncta number”.

**Q.** What about the rearing activity ([2]; fmr1 KO mice) of the same compound?
**A.** Its rearing activity is “significantly reduced rearing activity”.

**Q.** What about the “movement in the open field” value ([2]; fmr1 knockout mice, 2nd and 3rd trials) of the same compound?
**A.** The value was “significantly reduce movement”.

**Q.** And the rearing activity ([2]; wild-type mice)?
**A.** Its rearing activity is “no effect”.

Source: patent US20150224164A1, “TREATMENT OF AUTISM SPECTRUM DISORDERS USING GLYCYL-L-2-METHYLPROLYL-L-GLUMATIC ACID” (Neuren Pharmaceuticals Limited, priority 2013, published 2015)
